Where two headings read alike, the source gives them in different places.
Experiments:
[1] = biological target: T1, recombinant human LTA4 hydrolase (Homo sapiens, UniProt P09960); test: Recombinant Human LTA4 Hydrolase Assay for LTA4 Hydrolase Inhibitor Activity (LTB4 by enzyme-linked immunoassay); format: biochemical; conditions: for IC50: read-out: Recombinant Human LTA4 Hydrolase Assay IC50 LTA4H
T1 construct: made in house; host or cells: Spodoptera frugiperda Sf-9 cells, baculovirus (AcNPV) expression vector
T1 sequence (P09960 1-611): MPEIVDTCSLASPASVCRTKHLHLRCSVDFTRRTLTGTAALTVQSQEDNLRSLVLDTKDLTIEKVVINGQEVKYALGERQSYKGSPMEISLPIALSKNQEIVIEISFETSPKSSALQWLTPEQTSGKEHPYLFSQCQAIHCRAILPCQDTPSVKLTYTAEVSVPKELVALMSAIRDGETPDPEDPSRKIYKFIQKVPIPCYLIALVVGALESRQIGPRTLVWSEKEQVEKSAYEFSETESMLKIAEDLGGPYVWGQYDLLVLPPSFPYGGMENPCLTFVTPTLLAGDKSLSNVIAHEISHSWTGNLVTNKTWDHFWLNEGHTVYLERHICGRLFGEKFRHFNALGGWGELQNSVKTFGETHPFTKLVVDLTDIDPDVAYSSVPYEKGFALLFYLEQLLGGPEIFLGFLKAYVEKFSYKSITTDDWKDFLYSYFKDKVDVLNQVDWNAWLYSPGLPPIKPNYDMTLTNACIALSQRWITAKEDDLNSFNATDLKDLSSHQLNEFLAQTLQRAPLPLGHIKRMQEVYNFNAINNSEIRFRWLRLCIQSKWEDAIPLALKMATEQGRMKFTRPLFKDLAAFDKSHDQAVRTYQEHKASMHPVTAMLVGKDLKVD
Description: Compounds of the present invention were tested for LTA4 hydrolase inhibitor activity against recombinant human LTA4 hydrolase (rhLTA4 H). […] Briefly, LTA4 hydrolase encoding DNA was amplified by polymerase chain reaction using a pair of oligonucleotide primers based on the nucleotide sequence from the 5'-end, and the complement of the 3'-end, of the coding region of the LTA4 hydrolase gene, the nucleotide sequence of which gene is known. […] A λgtll human placental cDNA library (Clonetech, Palo Alto, Calif.) provided the nucleic acid template.
One or more predetermined amounts of a compound of the invention were incubated in assay buffer (0.1M potassium phosphate, 5 mg/ml fatty acid free BSA, 10% DMSO, pH 7.4) for 10 minutes at room temperature with 250 ng of recombinant hLT4 H to allow binding, if any, between the enzyme and inhibitor. The stock enzyme solution was 1 mg/ml LTA4 hydrolase, 50 mM Tris, pH 8.0, 150 mM NaCl, 2.5 mM beta-mercaptoethanol, 50% glycerol. […] LTA4 (i.e., substrate) was prepared from the methyl ester of LTA4 (Biomol, Inc., Plymouth Meeting, Pa.) by treating the methyl ester with 30 molar equivalents of LiOH at room temperature for 18 hours. The LTA4 substrate in its free acid form was kept frozen at -80° C. until needed. […] Each reaction was carried out at room temperature for 10 minutes. The reaction was stopped by diluting 25 μl of the reaction mixture with 500 μl of the assay buffer without DMSO. LTB4 was quantified in the diluted sample by a commercially available enzyme-linked immunoassay [Caymen Chemical Co., Ann Arbor, Mich.] using the method recommended in the manufacturer's instructions and compared to the amount of LTB4 produced in a negative control (i.e., essentially identical conditions except without addition of an inhibitor compound). The IC50 was routinely calculated from the data produced.

[2] = system: LTB4 production in mouse blood; test: Murine Ex Vivo LTB4 Inhibition, calcium ionophore stimulated mouse blood after oral gavage; format: in vivo
Description: Leukotriene A4 hydrolass inhibitor compounds of the present invention were diluted to a predetermined concentration in phosphate buffered saline containing 2% DMSO and 1% Tween 80. The compounds were administered by oral gavage to adult male outbred mice weighing approximately 20-30 gm at a dose of 10 mg/kg body weight. (Compounds given at a dose of 50 mg/kg body weight are designtated in following Table by the symbol, *.) Sixty (60) minutes after administration of an LTA4 inhibitor compound of the invention, blood was collected (into heparin-containing tubes) from the retroorbital sinus. […] The mixture was incubated for 10 minutes at 37° C. in a humidified incubator. The reaction was terminated by centrifugation (833 g, 10 minutes at 4° C.). Supernatants were analyzed for LTB4 and thromboxane by commercially available enzyme-linked immunoassays [Caymen Chemical Co., Ann Arbor, Mich.] in accordance with the manufacturer's instructions. The percent inhibition was determined by comparison to animals treated identically except that the solution admininstered by oral gavage was devoid of inhibitor compound.

[3] = system: LTB4 production in human blood; test: Inhibition of Calcium Ionophore-Induced LTB4 Production in Human Blood (HWB); format: cell-based; conditions: Homo sapiens, read-out: Inhibition of Calcium Ionophore-Induced LTB4 Production in Human Blood IC50 HWB
[4] = human whole blood, A23187 20 mcg/ml

Structure (SMILES)	IC50 [1] [nM]	Murine Ex Vivo LTB4 Inhibition % I LTB4 at 1 hour after administration of 10 mg/kg ([2]; oral gavage, 10 mg/kg, 1 hour) [%]	IC50 [3, 4] [nM]	also measured
c1ccc(Oc2ccc(OCCN3CCCC3)cc2)cc1 [Example 44, 1-[2-(4-phenoxyphenoxy)ethyl]pyrrolidine]	30	25		
c1ccc(Cc2ccc(OCCN3CCCC3)cc2)cc1 [Example 45]	26	35		IC50 [3]: 116 nM
c1nc(Cc2ccc(OCCN3CCCC3)cc2)cs1 [Example 49]	190	46		
FC(F)(c1ccccc1)c1ccc(OCCN2CCCC2)cc1 [Example 67]	11	0		
c1ccc(Cc2ccc(OCCN3CCCC3)nc2)cc1 [Example 112]	7			Murine Ex Vivo LTB4 Inhibition % I LTB4 at 1 hour after administration of 50 mg/kg (*) ([2]; in vivo, po): 82%
Fc1cc(OCCN2CCCC2)ccc1Cc1ccccc1 [Example 116]	53	18	1090	
c1csc(Cc2ccc(OCCN3CCCC3)cc2)n1 [Example 121]	69	48		
c1ncc(Cc2ccc(OCCN3CCCC3)cc2)s1 [Example 122]	77	57		
c1cncc(Cc2ccc(OCCN3CCCC3)cc2)c1 [Example 125]	87	46		
Clc1cccc(COc2ccc(OCCN3CCCC3)cc2)c1 [Example 206]		0	1650	
NC(=O)C1CCN(CCOc2ccc(Cc3ccccc3)cc2)CC1 [Example 242]	132	95	608	
CCOC(=O)C1CCN(CCOc2ccc(Cc3ccccc3)cc2)CC1 [Example 245]		97	147	
CCOC(=O)CCNCCCCOc1ccc(Cc2ccccc2)cc1 [Example 272]	7	97	76	
COC(=O)C1CC2CCC(C1)N2CC1Cc2cc(Cc3ccccc3)ccc2O1 (stereo not shown) [Example 283]		90		IC50 [3]: 90 nM
COC(=O)CC1CC2CC1CN2CCOc1ccc(Cc2ccccc2)cc1 (stereo not shown) [Example 304]	15			Murine Ex Vivo LTB4 Inhibition % I LTB4 at 1 hour after administration of 10 mg/kg ([2]; in vivo, po): 80%
COC(=O)CCN(C)CCCOc1ccc(Cc2ccsc2)cc1 [Example 330]		95	90	
COC(=O)CCN(C)CCCOc1ccc(Cc2cccs2)cc1 [Example 331]	16		95	
c1ccc(Cc2ccc(OCCn3cnc4cccnc43)cc2)cc1 [Example 338C]			9150	inhibition at 3 µM [1]: 34%
c1ccc(Cc2ccc(OCCn3cnc4cnccc43)cc2)cc1 [Example 340B]		64	330	
c1ccc(Cc2ccc(OCCn3cnc4ncncc43)cc2)cc1 [Example 357A]		57		

Structure (SMILES)	IC50 [1] [nM]	Murine Ex Vivo LTB4 Inhibition % I LTB4 at 1 hour after administration of 10 mg/kg ([2]; oral gavage, 10 mg/kg, 1 hour) [%]	IC50 [3, 4] [nM]	also measured
c1ccc(Cc2ccc3c(c2)CC(Cn2cnc4cnccc42)O3)cc1 (stereo not shown) [Example 358B]		33	640	
c1ccc(Cc2ccc3c(c2)CC(Cn2ccc4ncnc-4c2)O3)cc1 (stereo not shown) [Example 358C]		13	590	
Nc1ccc2ncn(CCOc3ccc(Cc4ccccc4)cc3)c2c1 [Example 362B]	1320		4580	
[O-][n+]1ccc2c(c1)ncn2CCOc1ccc(Cc2ccccc2)cc1 [Example 365]		72		
CCOC(=O)C1CCN(CCOc2ccc(Cc3ccccc3)s2)CC1 [Example 370]		96	680	
COC(=O)CCN(C)CCCOc1ccc(Cc2ccccc2)s1 [Example 375]		67	240	
O=C(COc1ccc(Cc2ccccc2)cc1)N1CCCCC1 [Example 387, 1-(1-piperidinyl)-2-[4-(phenylmethyl)phenoxy]ethanone]	37		120	
COC[C@@H]1CCCN1CCOc1ccc(Cc2ccccc2)cc1 [Example 400]	60		380	
CC1CCCC(C)N1CCOc1ccc(Cc2ccccc2)cc1 (stereo not shown) [Example 402]		58		
CCOC(=O)CCN(C)CCCOc1ccc(Cc2ccccc2)cc1 [Example 412]	190		240	
NC(=O)C1CCN(CCOc2ccc(Cc3ccccc3)cc2)C1 (stereo not shown) [Example 425]	16		360	
NC(=O)CC1CCN(CCOc2ccc(Cc3ccccc3)cc2)C1 (stereo not shown) [Example 426]	210		403	
O=C(O)C1CCN(CCOc2ccc(Cc3ccccc3)cc2)CC1 [Example 429]		80	288	
O=C(O)CCNCCCOc1ccc(Cc2ccccc2)cc1 [Example 431]	140		280	
O=C(O)CCNCCCCOc1ccc(Cc2ccccc2)cc1 [Example 433]	18		49	
c1ccc(Cc2ccc(OCCN3CCC(c4nnn[nH]4)CC3)cc2)cc1 [Example 450]	240	91		
NC1CCN(CCOc2ccc(Cc3ccccc3)cc2)C1 (stereo not shown) [Example 452]	20		290	
NC(=O)NC1CCN(CCOc2ccc(Cc3ccccc3)cc2)C1 (stereo not shown) [Example 453]	81		350	
NC(=O)NC1CCN(CCOc2ccc(Cc3ccccc3)cc2)CC1 [Example 456]	87		440	

Reference: US5585492A, “LTA4 Hydrolase inhibitors” (priority 1994, dated 1996)
